# Molecular target: T1, Human type-X sPLA2 (Homo sapiens, UniProt O15496)
# T1 construct: made in house; host or cells: CHO cells, stably transfected with a pSVL expression vector; culture supernatant used as the enzyme source
# T1 sequence (O15496 43-165): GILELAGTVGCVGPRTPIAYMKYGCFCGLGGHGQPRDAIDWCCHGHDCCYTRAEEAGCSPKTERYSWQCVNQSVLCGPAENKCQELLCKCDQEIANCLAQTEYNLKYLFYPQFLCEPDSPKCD
# Assay: type-X sPLA2 inhibition test (chromogenic assay, diheptanoylthio PC)
# Format: biochemical
# Details: diheptanoylthio PC 1 mM, Triton X-100 0.3 mM, 30 min at 40° C., absorbance at 405 nm
# Source text: cDNA sequence encoding human type-X sPLA2 (Cupillard et al., J. Biol. Chem, 1997, 272, 15745-15752) was inserted into the downstream region of the promoter of pSVL SV40 Late Promoter Expression Vector (Amersham Pharmacia Biotech Inc.) that is an expression vector for mammalian cells. The obtained expression vector was transfected into the host CHO cells with a LipofectAMINE reagent (Gibco BRL Inc.) according to the manufacture's instruction to obtain the CHO cells stably expressing human type-X sPLA2. The transfected cell was cultured in A-MEM medium containing 10% fetal calf serum for 3 days and its culture supernatant was used for the measurement of each enzyme activity.
# In order to identify and evaluate an inhibitor of type-X sPLA2, the following chromogenic assay is utilized. This assay has been applied for high volume screening using a 96-well microtiterplate. A general explanation for this assay is described in “Analysis of Human Synovial Fluid Phospholipase A2 on Short Chain Phosphatidylcholine-Mixed Micelles: Development of a Spectrophotometric Assay Suitable for a Micortiterplate Reader” (Analytical Biochemistry, 204, pp 190-197, 1992 by Laure. J. Reynolds. Lori L. Hughes and Edward A. Dennis.
# Human type-X sPLA2 was incubated (30 min at 40° C. (15 μl/well)) with diheptanoylthio PC (1 mM) in the presence of Triton X-100 (0.3 mM) and 5,5′-dithiobis(2-nitrobenzoic acid) (125 μM) in Tris-HCl buffer (25 mM, pH 7.5) containing CaCl2 (10 mM), KCl (100 mM), and bovine serum albumin (1.0 mg/mL). The changes in the absorbance at 405 nm were measured and the inhibition activities were calculated.
row,SMILES,IC50
1,CCc1c(C(=O)C(N)=O)c2c(OCC(=O)O)nc(C3CCCCC3)cn2c1Cc1ccccc1 [Compound 16],0.007 µM
2,CCCc1c(C(=O)C(N)=O)c2c(OCC(=O)O)nc(C)cn2c1CC1CCCCC1 [Compound 5],0.012 µM
3,CCc1c(C(=O)C(N)=O)c2c(OCC(=O)NS(=O)(=O)c3ccccc3)cccc2n1Cc1ccccc1 [Compound 18],0.016 µM

# More lines, now with the values ahead:
row,IC50,SMILES
1,0.01 µM,CCc1c(C(=O)C(N)=O)c2c(OCC(=O)O)nc(C)cn2c1Cc1ccccc1Cc1ccccc1 [Compound 2]
2,0.027 µM,CCCc1c(C(=O)C(N)=O)c2c(OCC(=O)O)nc(C)cn2c1Cc1ccccc1 [Compound 4]
3,0.01 µM,CCc1c(C(=O)C(N)=O)c2c(OCC(=O)O)nc(C)cn2c1Cc1cccc(-c2ccccc2)c1 [Compound 1]
4,0.005 µM,CCc1c(C(=O)C(N)=O)c2c(OCC(=O)O)nc(-c3ccccc3)cn2c1Cc1ccccc1 [Compound 3]

# — patent US20040102442A1, “Remedies for alzheimer's disease” (priority 2000, published 2004)
